Laboratory results: article PMC8949187, “Study of Structure–Activity Relationships of the Marine Alkaloid Fascaplysin and Its Derivatives as Potent Anticancer Agents” (Marine Drugs, 2022)

Legend:
PC-3 cells = experiment: MTT assay, PC-3 cells; assay type: cell-based, human; details: prostate cancer cells, 48 h of treatment, mean ± SD
Procedure: (§1) The human prostate cancer cell lines PC-3, DU145, 22Rv1 and LNCaP, as well as human prostate non-cancer cell line PNT2 were purchased from ATCC (Manassas, VA, USA). HEK 293T (human embryonic kidney cells) and MRC-9 (human fibroblast cells) cell lines were purchased from ECACC (Salisbury, UK). […] Authentication of all cell lines used was recently performed by a commercial service (Multiplexion GmbH, Heidelberg, Germany).
(§2) Cells were cultured as monolayers at 37 °C in a humidified atmosphere with 5% (v/v) CO2 in the correspondent culture medium: 10% FBS/RPMI medium (RPMI medium supplemented with Glutamax^TM-I (gibco® Life technologies^TM, Paisley, UK) containing 10% fetal bovine serum (FBS, gibco® Life technologies^TM) and 1% penicillin/streptomycin (Invitrogen)) for PNT2, LNCaP, 22Rv1, PC-3 and DU145 and cells; 10% FBS/DMEM medium (DMEM medium supplemented with Glutamax^TM-I (gibco® Life technologies^TM) containing 10% FBS and 1% penicillin/streptomycin (gibco® Life technologies^TM)) for MRC-9 and HEK 293 cells. Cells were continuously kept in culture for a maximum of 3 months, and were regularly checked for stable phenotype and mycoplasma infection.
(§3) Effect of the drugs on cell viability in terms of metabolic activity was assessed by MTT assay, as previously reported. Cells were pre-incubated overnight in 96-well plates (6 × 10^3 cells/well in 100 μL/well) in the correspondent culture media. Then, the medium was replaced with fresh 10% FBS/RPMI medium containing the investigated compounds (100 μL/well), and cells were incubated for 48 h, unless otherwise stated. Next, 10 μL/well of (3-(4,5-dimethylthiazol-2-yl)-2,5-diphenyltetrazolium bromide) reagent (MTT, 5 mg/mL) was added. After 2–4 h of incubation, the media was aspirated and the plates were dried. Then, 50 μL/well of DMSO was added to each well and the cell viability was measured using an Infinite F200PRO reader (TECAN, Männedorf, Switzerland). Results were calculated using the GraphPad Prism software v.9.1.1 (GraphPad Software, San Diego, CA, USA) and are represented as IC50 of the compounds calculated using the cells treated with the solvent alone as a control.

22Rv1 cells [1] = experiment: MTT assay, 22Rv1 cells; assay type: cell-based, human; details: prostate cancer cells, 48 h of treatment, mean ± SD
Procedure: as §1, §2, §3

DU145 cells = experiment: MTT assay, DU145 cells; assay type: cell-based, human; details: prostate cancer cells, 48 h of treatment, mean ± SD
Procedure: as §1, §2, §3

LNCaP cells = experiment: MTT assay, LNCaP cells; assay type: cell-based, human; details: prostate cancer cells, 48 h of treatment, mean ± SD
Procedure: as §1, §2, §3

PNT2 cells = experiment: MTT assay, PNT2 cells; assay type: cell-based, human; details: non-cancer cells, 48 h of treatment, mean ± SD
Procedure: as §1, §2, §3

MRC-9 cells = experiment: MTT assay, MRC-9 cells; assay type: cell-based, human; details: non-cancer cells, 48 h of treatment, mean ± SD
Procedure: as §1, §2, §3

HEK-293 cells = experiment: MTT assay, HEK-293 cells; assay type: cell-based, human; details: non-cancer cells, 48 h of treatment, mean ± SD
Procedure: as §1, §2, §3

22Rv1 cells [2] = experiment: Trypan blue-based viability assay; assay type: cell-based, human; details: 48 h of treatment, mean ± SD, read-out: IC50, trypan blue staining assay
Procedure: The effect of the drugs on cell viability in terms of cellular membrane integrity was evaluated by the trypan blue exclusion assay as described before. In brief, cells (0.2 × 10^6 cells/well) were seeded in 6-well plates and incubated overnight, and the media was replaced with fresh media (1 mL/well) containing drugs at indicated concentrations. After treatment for 48 h, the cells were harvested by trypsinization, stained with trypan blue and the viability was measured using an automatic Beckman Coulter Vi-CELL (Beckman Coulter, Krefeld, Germany). Trypan blue-positive cells were assumed to have damaged cellular membrane (i.e., dead), whereas trypan blue-negative cells were considered to have an intact cellular membrane (i.e., alive).

22Rv1 cells [3] = experiment: DNA fragmentation (apoptosis, sub-G1), flow cytometry with PI staining; assay type: cell-based, human; details: treated at IC50 (MTT assay) for 48 h, mean ± SD
Procedure: The effects on cell cycle progression and DNA fragmentation were analyzed by flow cytometry using PI staining, as described before. Cells (2 × 10^5 cells/well) were pre-incubated overnight in 6-well plates and then treated with the investigated drugs in fresh culture media (2 mL/well) for 48 h. Cells were harvested by trypsinization, fixed in 70% EtOH, stained with PI solution and analyzed by FACS Calibur (BD Bioscience, San Jose, CA, USA). The results were quantified using BD Bioscience Cell Quest Pro v.5.2.1. software (BD Bioscience). The cells appearing as a sub-G1 population (containing fragmented DNA) were considered to be apoptotic.

[4] = system: non-cancer cell lines versus cancer cell lines; experiment: Selectivity index from MTT IC50s; assay type: cell-based, human; details: MTT; for Selectivity index, IC50 (non-prostate) / IC50 (prostate): mean IC50 MRC-9 and HEK-293 versus mean IC50 prostate cancer cell lines plus PNT2; for Selectivity index, IC50 (non-cancer) / IC50 (cancer): mean IC50 non-cancer cell lines versus mean IC50 cancer cell lines
Procedure: as §3, with “Next, SAR analysis was performed to identify the structural elements that are beneficial for anticancer activity of the fascaplysin-related molecules. Considering the complex and heterogeneous nature of tumors even within the same patient, we used calculated mean IC50 values of each drug in all prostate cancer cells for further analysis (Figure 2A). To identify the drug candidates with the highest therapeutic potential, the selectivity index (SI) was calculated as mean IC50 in non-cancer cells versus mean IC50 in cancer cells (Figure 2B), or as a mean IC50 in non-cancer (MRC-9 and HEK293) cells versus mean IC50 in prostate cells (cancer PC-3, 22Rv1, DU145, LNCaP and non-cancer PNT2 cells) (Figure 2C). Finally, to estimate the effects on cellular metabolism, we compared the activity evaluated by using trypan blue assay versus MTT assay (Figure 2D). Effect” for “Effect”, “2-4” for “2–4”, “F200PRO” left out

[5] = system: double-stranded calf thymus DNA; experiment: Thiazole orange displacement (DNA intercalation) assay; assay type: binding; details: 1 µM calf thymus DNA base pairs, 2 µM thiazole orange; 7 min at room temperature; mean ± SD
Procedure: DNA intercalation activity of the compounds was calculated as an ability to displace thiazole orange (TO) from the double-stranded DNA. For this experiment, a mixture (100 µL) containing 1 µM of double-stranded calf thymus DNA (recalculated as a concentration of base pairs) and 2 µM of thiazole orange (TO) solved in water was prepared. Then, the investigated compounds were added up to final concentrations of 0.39–25 µM; DMSO concentration in the samples was <0.02%. Propidium iodide (PI, positive control) was added up to final concentrations of 0.039–2.5 uM. After 7 min of incubation at room temperature, TO fluorescence was monitored using a multimodal plate reader TECAN Spark (Tecan Group Ltd., Männedorf Switzerland) at the excitation λ = 480 nm; fluorescence was recorded at λ = 530 nm. The bandwidth was 10 nm. The concentration of the drug that caused a decrease in TO fluorescence by 50% (EC50) was determined by approximating the experimental data using a non-linear regression algorithm and calculated using the GraphPad Prism software v.9.1.1 (GraphPad Software, San Diego, CA, USA).

[6] = system: prostate cancer cell lines (PC-3, 22Rv1, DU145 and LNCaP); experiment: MTT assay, mean over four prostate cancer cell lines; assay type: cell-based; details: Homo sapiens; mean of MTT IC50 in PC-3, 22Rv1, DU145 and LNCaP; from Table S1 values; read-out: mean IC50 in cancer cells
Procedure: as §3, with “Next, SAR analysis was performed to identify the structural elements that are beneficial for anticancer activity of the fascaplysin-related molecules. Considering the complex and heterogeneous nature of tumors even within the same patient, we used calculated mean IC50 values of each drug in all prostate cancer cells for further analysis (Figure 2A). To identify the drug candidates with the highest therapeutic potential, the selectivity index (SI) was calculated as mean IC50 in non-cancer cells versus mean IC50 in cancer cells (Figure 2B), or as a mean IC50 in non-cancer (MRC-9 and HEK293) cells versus mean IC50 in prostate cells (cancer PC-3, 22Rv1, DU145, LNCaP and non-cancer PNT2 cells) (Figure 2C). Finally, to estimate the effects on cellular metabolism, we compared the activity evaluated by using trypan blue assay versus MTT assay (Figure 2D). Effect” for “Effect”, “2-4” for “2–4”, “F200PRO” left out

| % of sub-G1 apoptotic cells (at IC50) (22Rv1 cells [3]) | IC50 (PC-3 cells; Homo sapiens, PC-3) | IC50 (22Rv1 cells [1]; Homo sapiens, 22Rv1) | IC50 (DU145 cells; Homo sapiens, DU-145) | IC50 (LNCaP cells; Homo sapiens, LNCaP) | IC50 (22Rv1 cells [2]; Homo sapiens) | IC50 [6] | Compound | Selectivity index, IC50 (non-prostate) / IC50 (prostate) [4] | Selectivity index, IC50 (non-cancer) / IC50 (cancer) [4] | IC50 (PNT2 cells; Homo sapiens, PNT2) | IC50 (MRC-9 cells; Homo sapiens, MRC9) | IC50 (HEK-293 cells; Homo sapiens, HEK293) | also measured |
| --- | --- | --- | --- | --- | --- | --- | --- | --- | --- | --- | --- | --- | --- |
| 23.3±9.19% | 10000 ± 6750 nM | 417 ± 60 nM | 1510 ± 130 nM | 1250 ± 380 nM | 240 ± 41 nM | 3300 nM | O=C1c2ccc(Br)cc2-[n+]2ccc3c([nH]c4ccccc43)c21 [Compound 3, 3-bromofascaplysin] | 0.59 | 0.41 | 727 ± 60 nM | 2300 ± 870 nM | 1010 ± 71 nM | EC50 [5]: 700 ± 30 nM |
| 24.0±5.37% | 1830 ± 100 nM | 490 ± 39 nM | 913 ± 116 nM | 1130 ± 803 nM | 215 ± 36 nM | 1090 nM | O=C1c2cc(Br)ccc2-[n+]2ccc3c([nH]c4ccc(Br)cc43)c21.[Cl-] [Compound 10, 12,13-dihydro-2,9-dibromo-13-oxopyrido[1,2-a:3,4-b’]diindol-5-ium chloride] | 2.62 | 1.78 | 614 ± 98 nM | 4960 ± 386 nM | 250 ± 34 nM | – |
| 13.1±2.86% | 3140 ± 980 nM | 2330 ± 870 nM | 1350 ± 318 nM | 1170 ± 84 nM | 1330 ± 277 nM | 2000 nM | O=C1c2cc(Br)ccc2-[n+]2ccc3c([nH]c4ccc(I)cc43)c21.[Cl-] [Compound 11, 12,13-dihydro-2-bromo-9-iodo-13-oxopyrido[1,2-a:3,4-b’]diindol-5-ium chloride] | 9.15 | 5.55 | 860 ± 72 nM | 31900 ± 7070 nM | 480 ± 52 nM | – |
| 27.6±7.52% | 5940 ± 860 nM | 3980 ± 300 nM | 13200 ± 4440 nM | 7630 ± 740 nM | 4480 ± 1650 nM | 7690 nM | O=C1c2cc(Br)ccc2-[n+]2ccc3c([nH]c4c(Br)cc(Br)cc43)c21.[Cl-] [Compound 13, 12,13-dihydro-2,9,11-tribromo-13-oxopyrido[1,2-a:3,4-b’]diindol-5-ium chloride] | 2.29 | 1.59 | 4380 ± 674 nM | 30000 ± 5800 nM | 2250 ± 990 nM | – |
| 8.63±0.71% | 2950 ± 230 nM | 2240 ± 811 nM | 616 ± 94 nM | 2600 ± 367 nM | 2850 ± 487 nM | 2100 nM | O=C1c2ccc(Br)cc2-[n+]2ccc3c([nH]c4ccc(Br)cc43)c21.[Cl-] [Compound 15, 12,13-dihydro-3,9-dibromo-13-oxopyrido[1,2-a:3,4-b’]diindol-5-ium chloride] | 3.56 | 2.15 | 643 ± 49 nM | 12600 ± 6940 nM | 275 ± 21 nM | – |
| 23.1±3.42% | 1070 ± 550 nM | 790 ± 38 nM | 1790 ± 478 nM | 803 ± 80 nM | 472 ± 185 nM | 1110 nM | Cc1c[n+]2c(c3[nH]c4ccccc4c13)C(=O)c1ccccc1-2.[Cl-] [Compound 18, 12,13-dihydro-7-methyl-13-oxopyrido[1,2-a:3,4-b’]diindol-5-ium chloride] | 0.82 | 0.82 | 956 ± 92 nM | 1180 ± 96 nM | 590 ± 85 nM | – |
| – | – | – | – | – | – | – | CC[N+](C)(CC)CCC[n+]1c(-c2ccccc2)c2cc(N)ccc2c2ccc(N)cc21 [PI, propidium iodide, reference compound] | – | – | – | – | – | EC50 [5]: 4 ± 0.5 nM |

| Compound | % of sub-G1 apoptotic cells (at IC50) (22Rv1 cells [3]) | IC50 (PC-3 cells; Homo sapiens, PC-3) | IC50 (22Rv1 cells [1]; Homo sapiens, 22Rv1) | IC50 (DU145 cells; Homo sapiens, DU-145) | IC50 (LNCaP cells; Homo sapiens, LNCaP) | IC50 (22Rv1 cells [2]; Homo sapiens) | IC50 [6] | Selectivity index, IC50 (non-prostate) / IC50 (prostate) [4] | Selectivity index, IC50 (non-cancer) / IC50 (cancer) [4] | IC50 (PNT2 cells; Homo sapiens, PNT2) | IC50 (MRC-9 cells; Homo sapiens, MRC9) | IC50 (HEK-293 cells; Homo sapiens, HEK293) | also measured |
| --- | --- | --- | --- | --- | --- | --- | --- | --- | --- | --- | --- | --- | --- |
| N.N.[Cl][Pt][Cl] [Cis, Cisplatin, reference compound] | 14.7±3.43% | – | – | – | – | – | – | 0.92 | 1.23 | – | – | – | IC50 (PC-3 cells): 34600 nM; IC50 (22Rv1 cells [1]): 990 ± 290 nM; IC50 (DU145 cells): 1320 ± 530 nM; IC50 (LNCaP cells): 2750 ± 550 nM; IC50 (PNT2 cells): 9410 ± 3120 nM; IC50 (MRC-9 cells): 6750 ± 1990 nM; IC50 (HEK-293 cells): 6440 ± 1770 nM; IC50 (22Rv1 cells [2]): 190 ± 44 nM |
